The text below walks through data of the METLIN SMRT retention time set (Domingo-Almenara et al. 2019).

This data set in a line: gradient 5% acetonitrile 3 min, to 50% in 2 min, to 85% in 15 min, held 3 min, 100 µL/min. The following applies: column: Zorbax Extend-C18 2.1 x 50 mm; eluents: water / acetonitrile, 0.1% formic acid. Summed up:
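Pure standards were run in mixtures of ~100 molecules by HPLC coupled to a quadrupole time-of-flight mass spectrometer. The column was a Zorbax Extend-C18 (2.1 × 50 mm, 1.8 μm) at 100 μL/min, with water and acetonitrile each containing 0.1% formic acid, in positive and negative ionization mode. Dead and dwell volumes were 40 μL and 900 μL. Retention time was taken from computationally picked adduct peaks, each manually inspected, with data collected over 3 months.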
The compound `COc1ccc(CC(=O)N2CCc3cc(-c4ccno4)ccc32)cc1Cl` registered an RP-LC retention time of 1000 s.
`COCCN1C(=O)c2cccn2CC1CNC(=O)Cn1nc(C(F)(F)F)cc1C` (stereo not given) registered an RP-LC retention time of 703 s.
Turning to `COc1ccc(C(=O)Nc2cccn3c(C4CCC4)nnc23)cc1F`, the RP-LC retention time was determined as 769 s.
The value for `COc1ccc(Cl)cc1NC(=O)Cc1nnc(-c2ccc3ncccc3c2)o1` was 797 s; that for `CCOC(=O)C1CCN(C(=O)C2CCCN(c3ccc(-c4ccc(C)c(C)c4)nn3)C2)CC1` (stereo not given) was 761 s.
Under `O=C(NCc1ccccc1)C1CCN(S(=O)(=O)c2cc(-c3noc(C4CCC4)n3)cs2)CC1` stands 1020 s; under `CC(C)CC(NC(=O)c1ccccc1)C(=O)Nc1nc2ccccc2[nH]1` (stereo not given), 725 s.
The value for `CC(=O)Nc1ccc2c(c1)CN(C(=O)c1ccc(F)cc1F)C(C(=O)N(C)C)C2` (stereo not given) was 661 s; that for `C=CCn1c(C)c(CC(=O)NC(C)C)c(=O)n2nc(-c3ccccc3)nc12` was 733 s; that for `CCOc1cc(C(=O)NC2CCN(c3cc(-c4ccccc4)[nH]n3)C2)cc(OCC)c1OCC` (stereo not given) was 822 s.
On to `CCOc1ccccc1NC(=O)C1CC(=O)N(c2n[nH]c3ccccc23)C1` (stereo not given), for which the RP-LC retention time was found to be 767 s.
The value for `O=C(Cc1ccccc1)NC(c1ccccc1)c1ccc2cccnc2c1O` (stereo not given) was 822 s.
Under `Cc1ccccc1Nc1c(-c2cc(Br)ccc2F)nc2ccc(Br)cn12` stands 1120 s; under `O=C(NCc1ccco1)C1CCCN(S(=O)(=O)Cc2ccc(Cl)cc2)C1` (stereo not given), 888 s.
The value for `CN(C(=O)CSc1cc(NCc2ccc(Cl)cc2)ncn1)C1CCCCC1` was 956 s.
`COc1ccc(-c2nc(N3CCN(c4ccccn4)CC3)c3ccccc3n2)cc1` came in with an RP-LC retention time of 580 s.
The value for `CC(C)n1cnc(S(=O)(=O)N2CCC(C(=O)Nc3ccccc3)CC2)c1` was 748 s; that for `CCN1CCN(c2ccc(NC(=O)c3ccc(Cl)cc3)cn2)C1=O` was 775 s; that for `CCOc1ccc(-c2noc(Cc3nc(-c4ccc(F)cc4)cs3)n2)cc1` was 1290 s.
Under `CN(CC1(C)CCOCC1)C(=O)c1ccc(C#N)cc1` stands 716 s.
Consider `COC(=O)c1ccc(S(=O)(=O)NCc2nc(C)no2)cc1`, for which the RP-LC retention time was 659 s.
Consider `O=C(NCCn1nnc2cc(C(=O)N3CCCCC3)ccc21)NC1CCCC1`, for which the RP-LC retention time stood at 661 s.
Under `CCCn1cnc2ccc(-c3noc(Cc4cccs4)n3)cc21` stands 750 s; under `O=C(NCCOc1ccc(-c2ccccc2)nn1)c1ccc(=O)[nH]n1`, 600 s; under `O=C(NCC1(c2cccs2)CCOCC1)C(=O)Nc1cccnc1`, 600 s.
Under `O=C(Cn1ccc2ccccc21)NCc1ccc(OC(F)(F)F)cc1` stands 971 s; under `COc1ccc(-c2nc3ncccn3c2Nc2ccc(C)c(Cl)c2)cc1`, 821 s; under `O=C1CC(c2ccc3c(c2)OCO3)c2scc(S(=O)(=O)c3ccccc3)c2N1` (stereo not given), 905 s.
The value for `Cn1nc(C(=O)N2CCCCC2)c2c1CCN(C(=O)Nc1ccccc1Br)C2` was 764 s; that for `Cc1cccc2c(C(=O)NC3CC3)cc(N(C)C)nc12` was 588 s.
Regarding `CC(C)(C)c1cc(C(C)(C)C)c2c(c1)C(O)(C(F)(F)F)C(=O)O2` (stereo not given), the RP-LC retention time stood at 1250 s.
Under `O=C(Nc1ccc2c(c1)CN(S(=O)(=O)c1ccccc1)CC2)NC1CCCCC1` stands 901 s; under `Clc1cccc(-c2noc(-c3nc(-c4ccncc4)no3)n2)c1`, 1130 s; under `Cc1nn(-c2ccc(N3CCCCC3)nn2)c(C)c1CCC(=O)N1CCN(c2ccccn2)CC1`, 594 s.
Under `Cc1ccc(N2CC(c3noc(-c4ccccc4C)n3)CC2=O)cc1` (stereo not given) stands 1090 s; under `COc1ccc(C)cc1N(C)C(=O)C1CCCN(c2ncnc3c2nc2n3CCCCC2)C1` (stereo not given), 869 s; under `CCCn1ncc(N2CCC(C(=O)NCCCOC(C)C)CC2)cc1=O`, 650 s.
Turning to `CC(NC(=O)CCCn1c(=O)c2cccn2c2ccc(Br)cc21)C(=O)N1CCCCC1` (stereo not given), the RP-LC retention time came to 832 s.
`Cn1c(CC2CCN(C(=O)C3CC(=O)N(C4CCCCCC4)C3)C2)nc2cccnc21` (stereo not given): the RP-LC retention time worked out at 599 s.
The value for `O=C(Cn1nc(C2CC2)cc1C(=O)N1CCCC1)Nc1ccc(F)cc1Cl` was 813 s.
Under `C[C@H]1CN(C(=O)NCc2ccccc2)C[C@@H]1c1nc(-c2cccnc2)no1` stands 730 s.
The value for `CCN1C(=O)COc2ccc(-c3csc(NC(=O)c4ccc(C)cc4)n3)cc21` was 1040 s; that for `CC1CCN(c2cc(-n3cnc(C(=O)N4CCCCC4)c3)ncn2)CC1` was 920 s.
Take `O=C(c1cccs1)N1CCCCC1c1nncn1CC1CC1` (stereo not given): the RP-LC retention time stood at 690 s.
Compound `O=C(NCCCN1CCCC1)c1ccc2c(c1)NC(=O)C1CCCCN21` (stereo not given) gave an RP-LC retention time of 588 s.
Regarding `Cc1ccc(S(=O)(=O)Nc2ccc(Nc3cc(-n4cccn4)ncn3)cc2)c(C)c1`, the RP-LC retention time amounted to 888 s.
The value for `COc1cccc(NC(=O)C2CCN(S(C)(=O)=O)c3cc(Cl)ccc3O2)c1` (stereo not given) was 966 s.
On to `CC(=O)N1CCc2cc(S(=O)(=O)C(C)CC(=O)N3CCN(c4cccc(C)c4C)CC3)ccc21` (stereo not given), for which the RP-LC retention time worked out at 935 s.
The compound `CC(C)c1cc(C(=O)Nc2ccc(Cl)cc2)nn1C1CCS(=O)(=O)C1` (stereo not given) came in with an RP-LC retention time of 936 s.
`COC(=O)C1=CN(c2cc(F)ccc2C)c2ccc(F)cc2S1(=O)=O` registered an RP-LC retention time of 898 s.
With `Cn1nc(C(=O)N2CCCC(C(=O)NC3CC3)C2)c2c1CCN(C(=O)COc1ccc(F)cc1)C2` (stereo not given), the RP-LC retention time is 674 s.
The value for `Cc1cccc(NC(=O)Cc2nnc(-c3cnccn3)o2)c1C` was 678 s; that for `O=C(Nc1cccc(-c2cn3cccnc3n2)c1)c1ccc(Br)cc1` was 734 s.
Take `CCn1cnc(S(=O)(=O)N2CCCC(C(=O)Nc3ccc(C)cc3Cl)C2)c1` (stereo not given): the RP-LC retention time came out at 809 s.
In turn, `CC(=O)Nc1c(C)noc1/C=C\c1ccc(S(=O)(=O)N2CCN(c3ccccn3)CC2)cc1` had an RP-LC retention time of 643 s.
Under `O=C(Nc1ccc(F)cc1)Nc1cccn2ncnc12` stands 763 s.
For the compound `CC1CCCCN1S(=O)(=O)c1ccc2nc(N3CCN(c4ccccn4)CC3)ccc2c1` (stereo not given), the RP-LC retention time was determined as 674 s.
Under `CS(=O)(=O)Nc1ccc(C2(C(=O)NCc3ccccn3)CCCCC2)cc1` stands 620 s; under `COc1ccccc1C(=O)NC1(C(F)(F)F)C(=O)N(C2CCCCC2)C(C)=C1C(C)=O` (stereo not given), 1080 s.
As for `COc1ccccc1CNC1=NCCNC12CCN(S(=O)(=O)c1ccccc1)CC2`, the RP-LC retention time was 692 s.
`CCn1cc(S(=O)(=O)Nc2cccc(OC)c2)c2cccnc21` showed an RP-LC retention time of 794 s.
Under `Cc1nc2cc3c(cc2n1CC(=O)NCCc1ccc(F)cc1)OCCO3` stands 646 s.
As for `CCc1nn2c(CNS(=O)(=O)c3ccccc3)c(-c3ccccc3)nc2s1`, the RP-LC retention time amounted to 901 s.
As for `COc1cc(Cl)ccc1C(=O)N1CCCC1c1nc(-c2ccccc2)no1` (stereo not given), the RP-LC retention time worked out at 1070 s.
In the case of `CCOc1ccc(S(=O)(=O)N2CCC(C(=O)NCC3CCCO3)CC2)cc1` (stereo not given), the RP-LC retention time is 750 s.
For `CC(C)CN1CCN(S(=O)(=O)c2ccc(-c3nnc(C(C)C)o3)o2)CC1`, the RP-LC retention time came out at 652 s.
`CCCCn1nnc(NCc2ccc(-c3cc(Cl)ccc3Cl)o2)n1`: the RP-LC retention time turned out to be 1220 s.
The value for `O=C(c1ccc(F)cc1F)N1CCC2(CC1)OCC(C(=O)N1CCCC1)N2C(=O)c1ccccc1` (stereo not given) was 698 s; that for `COc1ccc(CNC(=O)Nc2ccc(CC(=O)NCC(F)(F)F)cc2)cc1` was 706 s.
With `CC(C)NC(=O)C1CCN(c2cncnc2N(C)C)CC1`, the RP-LC retention time was determined as 580 s.
The compound `COCCCNC(=O)C1(c2ccc(NC(=O)c3cccs3)cc2)CC1` yielded an RP-LC retention time of 746 s.
With `CCCc1nc(-c2c(C)cc(C)nc2NC(=O)COc2ccccc2)no1`, the RP-LC retention time stood at 946 s.
The value for `Cc1cc(Cl)ccc1S(=O)(=O)N1CCn2c(nnc2C2CCN(C(C)C)C2)C1` (stereo not given) was 629 s; that for `O=C(OCCN1CCN(C2=NS(=O)(=O)c3ccccc32)CC1)c1ccccc1` was 656 s.
As for `COc1ccc(-c2cc(NCCc3ccc(OC)c(OC)c3)ncn2)cc1`, the RP-LC retention time was 563 s.
The value for `CC(C)c1ccc2nc3ccc(C(=O)NCCN(C)C)cn3c(=O)c2c1` was 631 s; that for `Cc1cc(C)cc(NC(=O)N2CCc3cn(C)c4cccc(c34)C2)c1` was 1050 s; that for `O=C(NCc1ccc(N2CCOCC2)nc1)c1ccc(C(F)(F)F)cc1` was 642 s.
`CCOc1ccc(S(=O)(=O)N2CCCC2C(=O)Nc2nccs2)cc1` (stereo not given) displayed an RP-LC retention time of 818 s.
Take `Cc1ccc(Nc2c(-c3ccc(N4CCOCC4)cc3)nc3ccc(Cl)cn23)cc1`: the RP-LC retention time is 777 s.
